Source: patent publication US9169241B2, “Quinolinyloxyphenylsulfonamides” (Max-Planck-Gesellschaft Zur Forderung der Wissenschaften …, priority 2009, dated 2015)
pIC50: −log10 of the molar value.

Key:
Hs578T [1] = test: Cell vitality assay (ATP assay, CellTiter-Glo); type: cell-based; conditions: Homo sapiens, Hs-578T; HS578T cell line, 72 h; Table Ib; read-out: IC50 ATP-Assay HS578T after 72 h
Experimental: The CellTiter-Glo® Luminescent Cell Viability Assay (Promega Corporation. Madison, Wis., USA) is method a determining the number of viable cells in culture based on quantification of the ATP being present which is an indicator of metabolically active cells was used according to manufacturers protocol, In detail the assay was performed in a 96 well format were 1000 cells/well were incubated with indicated compound at concentration of 12.5 μM, 6.25 μM, 3.125 μM, 1.56 μM, 0.78 μM, 0.39 μM, 0.195 μM as well as DMSO control for 72 h in 100 μl cell culture medium. IC50 values were calculated as 50% of ATP amount compared to DMSO control.
Protocol for the CellTiter-Glo® Luminescent Cell Viability Assay • 1. Prepare opaque-walled multiwell plates with mammalian cells in culture medium, 100 μl per well for 96-well plates • 2. Prepare control wells containing medium without cells to obtain a value for background luminescence. • 3. Add the compound to be tested to experimental wells, and incubate according to culture protocol. • 4. Equilibrate the plate and its contents at room temperature for approximately 30 minutes. • 5. Add a volume of CellTiter-Glo® Reagent (Promega Corporation. Madison, Wis.) equal to the volume of cell culture medium present in each well. • 6. Mix contents for 2 minutes on an orbital shaker to induce cell lysis. • 7. Allow the plate to incubate at room temperature for 10 minutes to stabilize luminescent signal. • 8. Record luminescence on Microplate Luminometer LB96V (Berthold Tchnologies, Bad Wildbad, Germany). An integration time of 0.1 and 1 second per well

Hs578T [2] = test: Wound healing migration assay; type: cell-based; conditions: Homo sapiens, Hs-578T; HS578T cell line; Table Ib
Experimental: This method mimics cell migration during wound healing in vivo. The basic steps involve creating a “wound” in a cell monolayer, capturing the images at the beginning and at regular intervals during cell migration to close the wound, and comparing the images to quantify the migration rate of the cells. In detail, 150000 cell/24 well have been seeded and allowed to form a monolayer overnight. Subsequently a “wound” or “scratch” has been performed with a 1000 μl pipette tip. The STDV of wound size is normally below 10% at time point t0. The assay was stopped by fixation with 0.05% Crystal violet/20% methanol when control scratches were closed. The assay was terminated between 48 h and 72 h depending on the migration potential of the indicated cell line. The “wounds” were visualized with a Zeiss Axiovert S100 microscope (Carl Zeiss UK, Welwyn Garden City, UK). The tested compounds were used at 12.5 μM, 6.25, 3.125 μM and DMSO control. IC50 values have been calculated as 50% wound size in between t0 and t48 or t72.

Hs578T [3] = test: Matrigel outgrowth assay/branching assay; type: cell-based; conditions: Homo sapiens, Hs-578T; HS578T cell line; Table Ib; read-out: Total branching inhibition in Matrigel HS578T
Experimental: The Matrigel outgrowth assay is based on the ability of tumor cell to penetrate a solid gel of extracellular matrix proteins mimicking the metastasis formation in vivo. While cells with low invasive potential appear as roundish cell or cell cluster, cells with high invasive potential penetrate the Matrigel and form polymorphic structures. In detail 65 μl of Matrigel matrix (Matrigel™ Matrix, BD Biosciences, Bedford, Mass., USA) with a concentration of 3 mg/ml have been polymerized in 96 well plates for 1 h at 37° C. Subsequently 5000 cell/well were seeded into each well containing cell culture medium and indicated compound with concentrations of 3.125 μM, 1.56 μM and 0.78 μM as well as DMSO control. After 48 h, 72 h and 96 h images of cell were taken on an inverted microscope using a 5× objective (Zeiss Axiovert S100 microscope Carl Zeiss UK, Welwyn Garden City, UK). Only compound concentrations were total branching inhibition was evident were accounted as positive. Method was used as previously described, with some modifications (Thompson E W, et al. Association of increased basement membrane invasiveness with absence of estrogen receptor and expression of vimentin in human breast cancer cell lines. J Cell Physiol 1992; 150:534-44).

SMILES	pIC50 (Hs578T [1])	pIC50 (Hs578T [2])	pIC50 (Hs578T [3])	melting point [°C]
COc1cc2c(Oc3cccc(NS(=O)(=O)c4ccccc4OC(F)(F)F)c3)ccnc2cc1OCCCN1CCN(C)CC1 [Example 126, N-(3-{6-Methoxy-7-[3-(4-methyl-piperazin-1-yl)-propoxy]-quinolin-4-yloxy}-phenyl)-2-trifluoromethoxy-benzenesulfonamide]	≥ 4.90	≥ 4.90	4.60 to 5.00	164 to 166
COc1cc2c(Oc3cccc(NS(=O)(=O)c4cccs4)c3)ccnc2cc1OCCCN1CCN(C)CC1 [Example 129, Thiophene-2-sulfonic acid (3-{6-methoxy-7-[3-(4-methyl-piperazin-1-yl)-propoxy]-quinolin-4-yloxy}-phenyl)-amide]	≥ 4.90	≥ 4.90	≥ 5.00	188 to 189
COc1cc2c(Oc3cccc(NS(=O)(=O)c4ccc(Cl)s4)c3)ccnc2cc1OCCCN1CCN(C)CC1 [Example 130, 5-Chloro-thiophene-2-sulfonic acid (3-{6-methoxy-7-[3-(4-methyl-piperazin-1-yl)-propoxy]-quinolin-4-yloxy}-phenyl)-amide]	≥ 4.90	4.30 to 4.90	≥ 5.00	162 to 163
COc1cc2c(Oc3cccc(NS(=O)(=O)c4ccc(C)s4)c3)ccnc2cc1OCCCN1CCN(C)CC1 [Example 131, 5-Methyl-thiophene-2-sulfonic acid (3-{6-methoxy-7-[3-(4-methyl-piperazin-1-yl)-propoxy]-quinolin-4-yloxy}-phenyl)-amide]	≥ 4.90	4.30 to 4.90	4.60 to 5.00	147 to 149
COc1cc2c(Oc3cccc(NS(=O)(=O)c4sc(NC(C)=O)nc4C)c3)ccnc2cc1OCCCN1CCN(C)CC1 [Example 132, N-[5-(3-{6-Methoxy-7-[3-(4-methyl-piperazin-1-yl)-propoxy]-quinolin-4-yloxy}-phenylsulfamoyl)-4-methyl-thiazol-2-yl]-acetamide]	4.30 to 4.90	4.30 to 4.90	4.60 to 5.00	148 to 150
COc1cc2c(Oc3cccc(NS(=O)(=O)c4ccsc4)c3)ccnc2cc1OCCCN1CCN(C)CC1 [Example 133, Thiophene-3-sulfonic acid (3-{6-methoxy-7-[3-(4-methyl-piperazin-1-yl)-propoxy]-quinolin-4-yloxy}-phenyl)-amide]	≥ 4.90	≥ 4.90	≥ 5.00	176 to 178
COC(=O)c1sccc1S(=O)(=O)Nc1cccc(Oc2ccnc3cc(OCCCN4CCN(C)CC4)c(OC)cc23)c1 [Example 135, 3-(3-{6-Methoxy-7-[3-(4-methyl-piperazin-1-yl)-propoxy]-quinolin-4-yloxy}-phenylsulfamoyl)-thiophene-2-carboxylic acid methyl ester]	4.30 to 4.90	4.30 to 4.90	4.60 to 5.00	84 to 86
COc1cc2c(Oc3cccc(NS(=O)(=O)c4ccco4)c3)ccnc2cc1OCCCN1CCN(C)CC1 [Example 137, Furan-2-sulfonic acid (3-{6-methoxy-7-[3-(4-methyl-piperazin-1-yl)-propoxy]-quinolin-4-yloxy}-phenyl)-amide]	4.30 to 4.90	4.30 to 4.90	4.60 to 5.00	176 to 177
COc1cc2c(Oc3cccc(NS(=O)(=O)c4c(C)noc4C)c3)ccnc2cc1OCCCN1CCN(C)CC1 [Example 138, 3,5-Dimethyl-isoxazole-4-sulfonic acid (3-{6-methoxy-7-[3-(4-methyl-piperazin-1-yl)-propoxy]-quinolin-4-yloxy}-phenyl)-amide]	4.30 to 4.90	4.30 to 4.90	4.60 to 5.00	200 to 202
COc1cc2c(Oc3cccc(NS(=O)(=O)c4ccn(C)n4)c3)ccnc2cc1OCCCN1CCN(C)CC1 [Example 139, 1-Methyl-1H-pyrazole-3-sulfonic acid (3-{6-methoxy-7-[3-(4-methyl-piperazin-1-yl)-propoxy]-quinolin-4-yloxy}-phenyl)-amide]	4.30 to 4.90	4.30 to 4.90	4.60 to 5.00	87 to 89
CCn1cc(S(=O)(=O)Nc2cccc(Oc3ccnc4cc(OCCCN5CCN(C)CC5)c(OC)cc34)c2)cn1 [Example 140, 1-Ethyl-1H-pyrazole-4-sulfonic acid (3-{6-methoxy-7-[3-(4-methyl-piperazin-1-yl)-propoxy]-quinolin-4-yloxy}-phenyl)-amide]	4.30 to 4.90	4.30 to 4.90	4.60 to 5.00	87 to 90
COc1cc2c(Oc3cccc(NS(=O)(=O)c4c[nH]c(C)n4)c3)ccnc2cc1OCCCN1CCN(C)CC1 [Example 141, 2-Methyl-1H-imidazole-4-sulfonic acid (3-{6-methoxy-7-[3-(4-methyl-piperazin-1-yl)-propoxy]-quinolin-4-yloxy}-phenyl)-amide]	4.30 to 4.90	4.30 to 4.90	4.60 to 5.00	118 to 120
COc1cc2c(Oc3cccc(NS(=O)(=O)C4CC4)c3)ccnc2cc1OCCCN1CCN(C)CC1 [Example 142, Cyclopropanesulfonic acid (3-{6-methoxy-7-[3-(4-methyl-piperazin-1-yl)-propoxy]-quinolin-4-yloxy}-phenyl)-amide]	4.30 to 4.90	4.30 to 4.90	4.60 to 5.00	150 to 152
COc1cc2c(Oc3cccc(NS(=O)(=O)/C=C/c4ccccc4)c3)ccnc2cc1OCCCN1CCN(C)CC1 [Example 143, 2-Phenyl-ethenesulfonic acid (3-{6-methoxy-7-[3-(4-methyl-piperazin-1-yl)-propoxy]-quinolin-4-yloxy}-phenyl)-amide]	≥ 4.90	≥ 4.90	≥ 5.00	85 to 87
COc1cc2c(Oc3ccc(NS(=O)(=O)c4c[nH]c(C)n4)cc3F)ccnc2cc1OCCCN1CCCCC1C (centres unmarked) [Example 149, 2-Methyl-1H-imidazole-4-sulfonic acid (3-fluoro-4-{6-methoxy-7-[3-(2-methyl-piperidin-1-yl)-propoxy]-quinolin-4-yloxy}-phenyl)-amide]	4.30 to 4.90	4.30 to 4.90	4.60 to 5.00	219 to 220
COc1cc2c(Oc3ccc(NS(=O)(=O)c4ccn(C)n4)cc3F)ccnc2cc1OCCCN1CCCCC1C (centres unmarked) [Example 150, 1-Methyl-1H-pyrazole-3-sulfonic acid (3-fluoro-4-{6-methoxy-7-[3-(2-methyl-piperidin-1-yl)-propoxy]-quinolin-4-yloxy}-phenyl)-amide]	≥ 4.90	4.30 to 4.90	4.60 to 5.00	175 to 176
COc1cc2c(Oc3ccc(NS(=O)(=O)c4c(C)nn(C)c4C)cc3F)ccnc2cc1OCCCN1CCCCC1 [Example 159, 1,3,5-Trimethyl-1H-pyrazole-4-sulfonic acid {3-fluoro-4-[6-methoxy-7-(3-piperidin-1-yl-propoxy)-quinolin-4-yloxy]-phenyl}-amide]	≥ 4.90	4.30 to 4.90	4.60 to 5.00	96 to 98
